According to ChEMBL document CHEMBL6096723, “Discovery of novel capsaicin analogs as TRPV1 inhibitors for the treatment of idiopathic pulmonary fibrosis” (Eur J Med Chem, 2025):
The source made the active and inactive calls. The rule behind the calls is not given here.

How the values were obtained:
[1] = test system: Mus musculus; test: Anti-pulmonary fibrotic activity against bleomycin induced pulmonary fibrosis mouse model assessed as reduction in pulmonary fibrosis lesions at 10 to 20 mg/kg, ip administered every alternative day for 8 to 21 days after modeling; format: functional, organism-based; conditions: dose 10-20 mg/kg, time 8-21 day
[2] = test system: Mus musculus; test: Anti-fibrotic activity against bleomycin-induced pulmonary fibrosis mouse model assessed as increase in forced vital capacity (FVC) at 10 to 20 mg/kg, ip administered every alternative day for 8 to 21 days after modeling; format: functional, organism-based; conditions: dose 10-20 mg/kg, time 8-21 day
[3] = test system: Rattus norvegicus; test: Cz in Sprague-Dawley rat at 50 mg/kg, iv measured upto 4 hrs by UPLC-MS/MS analysis; format: ADME, organism-based; conditions: in vivo
[4] = molecular target: Transient receptor potential cation channel subfamily V member 1 (Homo sapiens) (UniProt Q8NER1); test: Inhibition of TRPV1 (unknown origin) overexpressed in HEK-293T cells assessed as reduction in calcium level measured after 24 hrs by Fluo-4 calcium ion detection kit; format: cell-based
[5] = MRT(0 to t) in Sprague-Dawley rat at 50 mg/kg, ip measured upto 4 hrs by UPLC-MS/MS analysis; format: ADME, organism-based; conditions: in vivo
[6] = Acute toxicity in Kunming male mouse assessed as Uric acid (UA) level at 180 mg/kg, ip measured after 14 days (reference value: 264.8 micromol/L); format: organism-based; conditions: in vivo, 336 h, time 14 day
[7] = AUC(0 to infinity) in Sprague-Dawley rat at 50 mg/kg, po measured upto 4 hrs by UPLC-MS/MS analysis; format: ADME, organism-based; conditions: in vivo
[8] = Acute toxicity in Kunming female mouse assessed as Total bilirubin (T-Bil) level at 180 mg/kg, ip measured after 14 days (reference value: 10.79 micromol/L); format: organism-based; conditions: in vivo, 336 h, time 14 day
[9] = MRT(0 to t) in Sprague-Dawley rat at 50 mg/kg, po measured upto 4 hrs by UPLC-MS/MS analysis; format: ADME, organism-based; conditions: in vivo
[10] = AUC(0 to t) in Sprague-Dawley rat at 50 mg/kg, iv measured upto 4 hrs by UPLC-MS/MS analysis; format: ADME, organism-based; conditions: in vivo
[11] = molecular target: Transient receptor potential cation channel subfamily V member 1 (Mus musculus) (UniProt Q704Y3); test: Thermal stabilization of TRPV1 in mouse NIH3T3 cells assessed as reduction in TRPV1 degradation at 10 uM at 40 to 65 degreeC measured after 30 mins by CETSA; format: cell-based
[12] = Acute toxicity in Kunming mouse assessed as organ lesions in lung at 180 mg/kg, ip measured after 14 days by H and E staining based assay; format: organism-based; conditions: in vivo, 336 h, time 14 day
[13] = Acute toxicity in Kunming male mouse assessed as Creatine kinase (CK) level at 180 mg/kg, ip measured after 14 days (reference value: 710.6 U/L); format: organism-based; conditions: in vivo, 336 h, time 14 day
[14] = test system: Rattus norvegicus; test: Cz in Sprague-Dawley rat at 50 mg/kg, po measured upto 4 hrs by UPLC-MS/MS analysis; format: ADME, organism-based; conditions: in vivo
[15] = AUMC(0 to infinity) in Sprague-Dawley rat at 50 mg/kg, ip measured upto 4 hrs by UPLC-MS/MS analysis; format: ADME, organism-based; conditions: in vivo
[16] = test system: NIH3T3; test: Inhibition of TGFbeta-induced ERK1/2 phosphorylation in mouse NIH3T3 cells at 1 to 10 uM by Western blot analysis; format: functional, cell-based; conditions: dose 1-10 µM
[17] = Acute toxicity in Kunming female mouse assessed as Uric acid (UA) level at 180 mg/kg, ip measured after 14 days (reference value: 252.2 micromol/L); format: organism-based; conditions: in vivo, 336 h, time 14 day
[18] = Acute toxicity in Kunming female mouse assessed as Direct bilirubin (D-Bil) level at 180 mg/kg, ip measured after 14 days (reference value: 3.37 micromol/L); format: organism-based; conditions: in vivo, 336 h, time 14 day
[19] = Acute toxicity in Kunming male mouse assessed as Creatinine (CREA) level at 180 mg/kg, ip measured after 14 days (reference value: 12.4 micromol/L); format: organism-based; conditions: in vivo, 336 h, time 14 day
[20] = Bioavailability in Sprague-Dawley rat at 50 mg/kg, ip measured upto 4 hrs by UPLC-MS/MS analysis; format: ADME, organism-based; conditions: in vivo
[21] = VRT(0 to t) in Sprague-Dawley rat at 50 mg/kg, iv measured upto 4 hrs by UPLC-MS/MS analysis; format: ADME, organism-based; conditions: in vivo
[22] = Acute toxicity in Kunming mouse assessed as organ lesions in kidney at 180 mg/kg, ip measured after 14 days by H and E staining based assay; format: organism-based; conditions: in vivo, 336 h, time 14 day
[23] = Clearance in Sprague-Dawley rat at 50 mg/kg, po measured upto 4 hrs by UPLC-MS/MS analysis; format: ADME, organism-based; conditions: in vivo
[24] = Half life in Sprague-Dawley rat at 50 mg/kg, iv measured upto 4 hrs by UPLC-MS/MS analysis; format: ADME, organism-based; conditions: in vivo
[25] = AUC(0 to t) in Sprague-Dawley rat at 50 mg/kg, po measured upto 4 hrs by UPLC-MS/MS analysis; format: ADME, organism-based; conditions: in vivo

Transient receptor potential cation channel subfamily V member 1 (Mus musculus), sequence (Q704Y3 whole entry): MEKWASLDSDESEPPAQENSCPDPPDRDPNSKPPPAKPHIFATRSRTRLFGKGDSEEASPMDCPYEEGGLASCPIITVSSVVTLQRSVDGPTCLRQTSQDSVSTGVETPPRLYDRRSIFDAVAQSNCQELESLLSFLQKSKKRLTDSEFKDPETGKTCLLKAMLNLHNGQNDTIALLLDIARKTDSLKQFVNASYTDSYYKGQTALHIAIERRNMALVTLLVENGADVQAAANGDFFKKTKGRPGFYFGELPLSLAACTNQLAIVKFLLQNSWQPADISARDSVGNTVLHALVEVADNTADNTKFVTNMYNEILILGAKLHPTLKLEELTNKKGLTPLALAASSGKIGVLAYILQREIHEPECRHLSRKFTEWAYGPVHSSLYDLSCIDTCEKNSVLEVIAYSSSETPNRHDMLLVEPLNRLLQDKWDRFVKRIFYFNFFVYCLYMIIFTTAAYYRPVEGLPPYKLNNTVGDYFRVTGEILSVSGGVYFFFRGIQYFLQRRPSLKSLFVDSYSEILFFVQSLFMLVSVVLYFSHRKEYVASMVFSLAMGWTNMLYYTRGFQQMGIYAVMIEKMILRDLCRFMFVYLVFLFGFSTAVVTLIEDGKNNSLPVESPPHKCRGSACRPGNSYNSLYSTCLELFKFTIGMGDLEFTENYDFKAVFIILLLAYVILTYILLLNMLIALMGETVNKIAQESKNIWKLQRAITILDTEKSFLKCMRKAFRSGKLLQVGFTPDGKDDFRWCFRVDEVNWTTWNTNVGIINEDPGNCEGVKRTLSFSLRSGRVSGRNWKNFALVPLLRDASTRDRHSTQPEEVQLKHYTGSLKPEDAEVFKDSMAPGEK
Transient receptor potential cation channel subfamily V member 1 (Homo sapiens), sequence (Q8NER1 whole entry): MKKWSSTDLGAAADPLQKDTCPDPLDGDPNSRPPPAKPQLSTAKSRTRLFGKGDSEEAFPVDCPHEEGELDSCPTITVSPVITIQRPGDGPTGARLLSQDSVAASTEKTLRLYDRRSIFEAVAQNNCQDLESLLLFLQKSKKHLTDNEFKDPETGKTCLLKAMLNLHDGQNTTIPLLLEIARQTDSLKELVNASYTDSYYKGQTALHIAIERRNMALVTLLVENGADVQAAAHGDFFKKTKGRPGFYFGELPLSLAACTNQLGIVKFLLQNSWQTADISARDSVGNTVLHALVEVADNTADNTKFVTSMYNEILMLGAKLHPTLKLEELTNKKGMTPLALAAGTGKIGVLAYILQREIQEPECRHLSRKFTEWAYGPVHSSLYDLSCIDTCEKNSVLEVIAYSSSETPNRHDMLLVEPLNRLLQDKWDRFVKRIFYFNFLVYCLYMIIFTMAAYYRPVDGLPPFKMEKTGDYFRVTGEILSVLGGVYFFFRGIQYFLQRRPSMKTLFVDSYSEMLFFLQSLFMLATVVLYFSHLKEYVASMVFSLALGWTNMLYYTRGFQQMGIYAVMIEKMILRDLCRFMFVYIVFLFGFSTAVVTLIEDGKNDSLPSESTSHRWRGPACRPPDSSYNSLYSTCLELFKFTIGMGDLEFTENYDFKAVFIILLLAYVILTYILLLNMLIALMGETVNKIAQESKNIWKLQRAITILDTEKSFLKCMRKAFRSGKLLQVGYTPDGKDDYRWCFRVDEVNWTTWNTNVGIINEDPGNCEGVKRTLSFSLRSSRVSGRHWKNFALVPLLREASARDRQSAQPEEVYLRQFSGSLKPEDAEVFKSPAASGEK

O=C(/C=C/c1ccc(O)c(O)c1)CCCCc1ccccc1
Activity [1]: Active
Activity [2]: Active
Cz [3]: 31.67 µg/L
inhibition [4]: Active
MRT last at 4 h [5]: 31.2 min
Activity [6]: 325.4 µmol/L
AUC [7]: 102.37 ng·h/mL
Activity [8]: 18.82 µmol/L
MRT last at 4 h [9]: 73.2 min
AUC(0-t) at 4 h [10]: 2640 ng·h/mL
Activity [11]: Active
Activity [12]: Non-toxic
Activity [13]: 710.6 U/L
Cz [14]: 2.54 µg/L
AUMC [15]: 628.01 ug/L.hr
inhibition [16]: Active
Activity [17]: 345.6 µmol/L
Activity [18]: 1.02 µmol/L
Activity [19]: 15.3 µmol/L
bioavailability [20]: 29.6%
VRT(t) [21]: 0.569 hr2
Activity [22]: Non-toxic
CL [23]: 197.26 L/h/kg
half-life [24]: 39.4 min
AUC(0-t) at 4 h [25]: 99 ng·h/mL
